Assays:
[1] = system: T. cruzi trypomastigotes adhering to glutaraldehyde-fixed Vero cells; assay: Inhibition of trypomastigote binding to Vero cells; assay type: cell-based, Trypanosoma cruzi; conditions: trypomastigotes preincubated 30 min at 37° C., binding 60 min
Method: In these experiments attachment of trypomastigotes to Vero cell monolayers was measured as follows. Briefly, Vero cells were maintained in RPMI 1640 supplemented with heat-inactivated 1% Nu-serum (Collaborative Research Inc., Bedford, Mass.), penicillin (100 U/ml) and streptomycin ([…]). Unless noted otherwise, cells were maintained in plastic tissue culture flasks (150 cm^2, Bellco, Vineland, N.J.) and incubated at 37° C. in a humidified atmosphere containing 5% CO2 and 95% air. Cells were propagated every 1-2 weeks after trypsin-EDTA digestion (0.5 g trypsin, 0.2 g EDTA in HBSS without Ca^++ and Mg^++) in 16-well Lab-Tek® chamber slide™ (Nunc, Inc., Naperville, Ill.. Prior to binding experiments Vero cells were removed with trypsin and plated on 96-well tissue culture plates (Bellco, Vineland, N.J.) or in 16-well Lab-Tek® chamber slide™ at a density of 7.5×10^3 cells per well. After 24 h, the medium was removed, cells were washed twice with PBS, pH 7.2, and fixed for 5 min at 4° C. by addition of 2% glutaraldehyde (grade I, Sigma Chemical Co., St. Louis, Mo.) in PBS. Cell monolayers were washed twice with PBS, pH 7.2 and incubated overnight at 4° C. in 0.16M ethanolamine, pH 8.3 to block residual free […] amino groups. The next day, cell monolayers were washed three times with PBS as above, and two times with 1% BSA/RPMI-1640 and kept at least 1 h at 37° C. in the same medium.
Trypomastigotes, [^35 S]-labeled as described above, were added to the cell monolayers in a total volume of 100 μl/well and the plates were incubated for 1 h at 37° C. Each well was then washed five times with 100 μl prewarmed PBS (pH 7.2). The [^35 S] label was solubilized with 2M NaOH and the bound radioactivity was determined in a liquid scintillation counter. Alternatively, unlabeled trypomastigotes were added to wells of a 16-well Lab-Tek® chamber slide™ and incubated as above. After removing the plastic chamber, the slide was washed by dipping 5 times in PBS (pH 7.2) and immersed upside-down in 4% paraformaldehyde in PBS, containing 7% sucrose. Finally, the slide was rinsed with PBS, stained with Diff-Quik®and the number of bound T. cruzi were determined by counting under light microscopy. For inhibition studies, trypomastigotes were preincubated 30 min at 37° C. with the appropriate proteoglycan in 100 μl of 1% BSA-RPMI- 1640 before addition to cell monolayers. Binding was determined in triplicate at each inhibitor concentration and in the absence of inhibitor.
In this assay 100% binding was taken to 5 ×10^4 trypomastigotes/well bound in 60 min.

T. cruzi trypomastigotes = assay: Trypomastigote binding to heparin- or collagen-coated wells; assay type: cell-based, Trypanosoma cruzi; conditions: soluble compound
Method: Proteoglycans (dissolved in PBS) and collagen solubilized in 0.1N HCl and neutralized in PBS) were adsorbed onto plastic (Falcon 3912 polyvinylchloride 96-well microliter plates) by incubation overnight at 4° C. (Roberts et al., J. BioI. Chem. 264:9289, 1989). The unbound proteins were removed, the wells filled with 1% heat-treated BSA in PBS (56° C., 60 min and filtered in […] nitrocellulose filters to remove insoluble particles) and incubated for 1 h at room temperature. The wells were then washed twice with PBS (pH 7.2) and rinsed with RPMI 1640 containing 1% BSA. T. cruzi trypomastigotes, labeled with [^35 S] methionine, were resuspended in RPMI-BSA and 100 μl of the suspension was applied to the wells. After various periods of incubation at 37° C., the wells were carefully washed three times with 37° C. PBS (pH 7.2). T. cruzi bound to the plastic-bound proteoglycans were then solubilized with 100 μ l of 2 M NaOH, mixed with Ultrafluor (National Diagnostics, Manville, N.J.), and assayed by liquid scintillation counting. Referring to FIG. 1a, adherence of trypomastigotes to heparin-coated plates increased linearly with the length of incubation up to about 60 min. In a separate experiment trypomastigotes were added for 60 min, but the number added was varied. […] In contrast, non-specific binding to BSA-coated wells was less than 2%.

[2] = system: T. cruzi penetrin (60 kD trypomastigote heparin-binding protein), column-purified; assay: Binding of column-purified [125I]-labeled penetrin to heparin-Sepharose; set-up: species or system Trypanosoma cruzi; conditions: compound 100 μg/ml; Bovine Serum Albumin control 1.9
Method: To determine if [^125 I]-labeled penetrin was still active in binding extracellular matrix proteins after isolation by heparin affinity chromatography, rebinding and inhibition of rebinding to heparin-Sepharosebeads was performed. Briefly, column purified [^125 I]-labeled penetrin was incubated with or without compounds and mixed with 100 μl of heparin-Sepharose. The mixture was incubated at room temperature for 2 h under slow rocking. The slurry was then centrifuged (500× g, 5 min), washed three times with PBS, and bound radioactivity determined in a gamma counter. Referring to FIG. 7, in the absence of competitors, column-purified [^125 I]-labeled penetrin retained its ability to bind heparin-Sepharose.
For inhibition experiments, an aliquot of the purified heparin-binding protein was mixed with putative inhibitors for 1 h at room temperature, and the mixture added to 100 μl of heparin-Sepharose as above. The amount of [^125 I]-labeled protein retained by the agarose beads was assessed by elution of the protein with 1% SDS, SDS-polyacrylamide gel electrophoresis and autoradiography, and quantitated in a laser scanning densitometer (Pharmacia LKB, Ultroscan XL). One hundred percent binding was taken as the amount of protein retained by the heparin-Sepharose in the absence of added inhibitor. Referring to Table 2, adsorption of penetrin was inhibited by pre-incubation with soluble heparin, heparan sulfate or collagen, but not with other glycosaminoglycans (chondroitin sulfate and hyaluronic acid).

[3] = system: T. cruzi trypomastigotes infecting Vero cells; assay: Inhibition of T. cruzi infection of Vero cells; assay type: cell-based, Trypanosoma cruzi; conditions: for concentration causing 50% reduction of infection: FIG. 4, parasites preincubated 30 min, 2 h interaction, 3 days culture; for effect on infection: FIG. 4, even at high concentrations
Method: In these experiments, cultured Vero cells were released with trypsin/EDTA, plated at 7.5×10^3 cells/well in 16-well Lab-Tek® chamber slides™ for 24 h, and used for infection at ~75% confluence. Trypomastigotes were harvested, washed with serum-free RPMI containing 1% BSA, and mixed with various concentrations of proteoglycans. After 30 min at 37° C., 5×10^5 parasites in a total volume of 100 μl were added to each well containing subconfluent cultures of Vero cells and allowed to interact for 2 h at 37° C. At the end of the incubation time, cell monolayers were rinsed three times with serum-free medium, and further incubated in RPMI-1640 containing 1% Nu-serum for 3 days at 37° C. Finally, monolayers were washed, stained with Diff-Quik®, and examined under a microscope to estimate the ratio of infected (i.e., Vero cell containing more than one intracellular amastigote) to non-infected Vero cells. In order to establish if the inhibitory effect was due to interaction of heparin and heparan sulfate with trypomastigotes rather than to Vero cells, parasites or host cells were preincubated with the putative inhibitors, washed extensively, and assayed for infection as above.

[4] = system: E. coli XL-1 Blue with clone HBP-6 expressing penetrin, entering Vero cells; assay: Penetrin-mediated entry of E. coli into Vero cells (gentamicin survival); assay type: cell-based, Escherichia coli; conditions: 250 μg/ml; for inhibition of penetration of bacteria: E. coli preincubated with inhibitor; for survival of bacteria after gentamicin: 4.3% without inhibitor
Method: E. coli expressing penetrin are able to enter nonphagocytic mammalian cells which normally exclude E. coli. […] Recombinant bacteria were grown overnight at 37°, washed twice in PBS, resuspended at 10^8 cells/ml, and aliquots of 2×10^7 E coli were added to monolayers of 2×10^5 Vero cells per microliter well in 1 ml of RPMI 1640 medium containing 1% BSA. Bacteria were centrifuged onto the cell monolayer, and the cultures were incubated at 37° for 3 h in a 5% CO2 /95% air atmosphere, washed three times with sterile PBS, and incubated for an additional 1.5 h at 37° C. in RPMI 1640 medium containing 1% BSA and 75 μg/ml gentamicin (to kill bacteria bound to outer membrane). The monolayers were then washed three times in sterile PBS, and lysed with 0.5% Triton X-100 in deionized water to release internalized bacteria, which were quantitated in agar plates.

[5] = system: T. cruzi penetrin (60 kD trypomastigote heparin-binding protein), column-purified; assay: Binding of column-purified [125I]-labeled penetrin to fibroblasts (Vero cells); set-up: species or system Trypanosoma cruzi
Method: Binding of [^125 I]-labeled penetrin to Vero cells was assayed as follows. Vero cells, grown in multiwell plates to confluence as described above, were rinsed once with 1% BSA-RPMI-1640, and incubated at 37° C. with increasing concentrations of [^125 I]-labeled penetrin. After 1 h the medium was removed, cell monolayers were washed three times with PBS, solubilized with 100 μl of 2M NaOH, and the retained radioactivity measured in a gamma counter. For inhibition experiments, an aliquot of [^125 I]-labeled penetrin was preincubated with the potential inhibitors prior to adding to confluent cells, and processed as above.

Substance	% Vero Cells with Trypomastigotes ([1]; inhibitor 125 μg/ml) [%]	% Vero Cells with Trypomastigotes ([1]; inhibitor 250 μg/ml) [%]	inhibition of trypomastigote binding to coated wells (in words) (T. cruzi trypomastigotes)	Penetrin Bound [2] [cpm × 10^-3]	concentration causing 50% reduction of infection [3] [µg/mL]	inhibition of penetration of bacteria [4] [%]	survival of bacteria after gentamicin [4] [%]	inhibition of binding of [125I]-labeled penetrin to Vero cell monolayers (in words) [5]	% Inhibition of penetrin binding to fibroblasts ([5]; compound 250 μg/ml) [%]	effect on infection [3]	effect on E. coli entry (in words) [4]	% Inhibition of penetrin binding to fibroblasts ([5]; compound 5 μg/ml) [%]	% Inhibition of penetrin binding to fibroblasts ([5]; compound 25 μg/ml) [%]	% Inhibition of penetrin binding to fibroblasts ([5]; compound 50 μg/ml) [%]	% Inhibition of penetrin binding to fibroblasts ([5]; compound 100 μg/ml) [%]
Heparan Sulfate	60	18	inhibited	0.75	1.5	85	0.6	inhiited	65						
Hyaluronic Acid		98		1.8						little effect on infection	without effect				
Heparin	50	12.5	inhibited	0.7	100	85	0.6	inhiited	91			25	55	75	89
Chondroitin Sulfate		96		1.6					12	little effect on infection	without effect				

From patent US5234822A, “Trypanosoma cruzi heparin-binding protein and antibodies thereto” (priority 1991, dated 1993)
